Measured values: patent US5169856A, “Piperidinoalkyl derivatives of carboxylic acid amides” (priority 1988, dated 1992)
Counter-ions that a name gives are not always drawn.

Target: T1, acetylcholinesterase (Rattus norvegicus, UniProt P37136)
T1 construct: S1 fraction of the cerebral cortex of male Wistar rats, the enzyme source; from tissue; host or cells: S1 fraction of the cerebral cortex of male Wistar rats
Experiment: Inhibition of cholinesterase activity, radiometric ([acetyl-3H]-acetylcholine), S1 fraction of rat cerebral cortex
Type: biochemical, male Wistar rats
Conditions: 15 min preincubation at room temperature, [acetyl-3H]-acetylcholine final 200 μM, 30 min, read-out: Anti-acetylcholinesterase activity IC50
Protocol: Cholinesterase activity was measured radiometrically by the method of Johnson and Russell^1), modified by Kleinberger and Yanal^2), with a slight modification.
S1 fraction of the cerebral cortex of male Wistar rats, the enzyme source, was preincubated in a scintillation vial with drugs for 15 min at room temperature, and then [acetyl-^3 H]-acetylchollne (final 200 μM) was added and incubated further for 30 min. The reaction was terminated by adding solution containing 1 M chloroacetic acid, followed by toluene-based scintillant, and the vials were capped and shaken to transfer the product, [^3 H]-acetic acid, to toluene phase. Then radioactivity in the toluene phase was counted by liquid scintillation spectrometry. Inhibitory activity of the test drug was expressed by 50%-inhibitory concentration (IC50), which was calculated by linear regression of log-probit transformation of the inhibition curve.

T1 sequence (P37136 32-614): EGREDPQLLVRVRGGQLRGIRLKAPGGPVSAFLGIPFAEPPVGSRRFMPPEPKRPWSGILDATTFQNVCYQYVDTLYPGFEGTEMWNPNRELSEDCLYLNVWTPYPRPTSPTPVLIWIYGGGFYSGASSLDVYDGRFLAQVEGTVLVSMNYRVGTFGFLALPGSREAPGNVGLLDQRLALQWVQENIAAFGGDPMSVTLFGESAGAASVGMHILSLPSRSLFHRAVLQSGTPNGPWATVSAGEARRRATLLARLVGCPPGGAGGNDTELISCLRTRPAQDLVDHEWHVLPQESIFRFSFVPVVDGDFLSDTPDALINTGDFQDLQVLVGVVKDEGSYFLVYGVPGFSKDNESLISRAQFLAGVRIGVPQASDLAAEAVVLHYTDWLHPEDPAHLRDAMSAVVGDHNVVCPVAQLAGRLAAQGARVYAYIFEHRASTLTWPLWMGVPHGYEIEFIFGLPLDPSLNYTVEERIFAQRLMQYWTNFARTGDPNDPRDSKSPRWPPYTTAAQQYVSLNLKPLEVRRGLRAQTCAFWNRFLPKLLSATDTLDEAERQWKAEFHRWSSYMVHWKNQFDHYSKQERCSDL

With `O=C(C=Cc1cccnc1)NCCC1CCN(Cc2ccccc2)CC1` [Example 4-3] as the compound, how does the IC50 read?
Its IC50 is 2 µM.

`O=C(C=Cc1ccc(Cl)cc1)NCCC1CCN(Cc2ccccc2)CC1` [Example 4-12] was tested. Which IC50 did it give?
Its IC50 is 9.2 µM.

With `CS(=O)(=O)c1ccc(C=CC(=O)NCCC2CCN(Cc3ccccc3)CC2)cc1` [Example 4-10] as the compound, how does the IC50 read?
Its IC50 is 1.6 µM.

With `N#Cc1ccc(C=CC(=O)NCCC2CCN(Cc3ccccc3)CC2)cc1` [Example 4-9] as the compound, how does the IC50 read?
Its IC50 is 3.3 µM.

For `O=C(/C=C/c1ccccc1)NCCC1CCN(Cc2ccccc2)CC1` [Example 1, (E)-3-Phenyl-N-[2-(1-benzylpiperidin-4-yl)ethyl]-2propenamide.hydrochloride], which IC50 is on record?
Its IC50 is 9.6 µM.

How did the IC50 turn out when `O=C(C=Cc1ccc([N+](=O)[O-])cc1)NCCC1CCN(Cc2ccccc2)CC1` [Example 4-8] was run?
Its IC50 is 2.8 µM.

Which IC50 does the source give for `COc1cc2c(cc1OC)CCC(C(=O)NCCC1CCN(Cc3ccccc3)CC1)=C2` [Example 4-7] here?
The IC50 was 1.2 µM.

With `CC(=O)N(CCC1CCN(Cc2ccccc2)CC1)C(=O)/C=C/c1ccccc1` [Example 3, (E)-3-Phenyl-N-acetyl-N-[2-(1-benzylpiperidin-4yl)ethyl]-2-propenamide.hydrochloride] as the compound, how does the IC50 read?
Its IC50 is 0.64 µM.

For `O=C(C=Cc1cccs1)NCCC1CCN(Cc2ccccc2)CC1` [Example 4-5], which IC50 is on record?
Its IC50 is 13 µM.

With `CN(CCC1CCN(Cc2ccccc2)CC1)C(=O)/C=C/c1ccccc1` [Example 2, (E)-3-Phenyl-N-methyl-N-[2-(1-benzylpiperidin-4-yl)ethyl]-2-propenamide.hydrochloride] as the compound, how does the IC50 read?
Its IC50 is 18 µM.

`CC(=Cc1ccccc1)C(=O)NCCC1CCN(Cc2ccccc2)CC1` [Example 4-1] was tested. Which IC50 did it give?
Its IC50 is 8.1 µM.

How did the IC50 turn out when `COc1ccc(C=CC(=O)NCCC2CCN(Cc3ccccc3)CC2)cc1OC` [Example 4-6] was run?
The IC50 was 2.6 µM.

For `O=C(NCCC1CCN(Cc2ccccc2)CC1)C(=Cc1ccccc1)c1ccccc1` [Example 4-2], which IC50 is on record?
Its IC50 is 3.5 µM.

How did the IC50 turn out when `Cc1ccc(C=CC(=O)NCCC2CCN(Cc3ccccc3)CC2)cc1` [Example 4-11] was run?
The IC50 was 15 µM.

How did the IC50 turn out when `O=C(C=Cc1ccco1)NCCC1CCN(Cc2ccccc2)CC1` [Example 4-4] was run?
The IC50 was 9.9 µM.
